Source: patent US20220265671A1, “METHOD FOR TREATING STROKE BY USING TRICYCLIC DERIVATIVE” (Jeil Pharmaceutical Co., Ltd., priority 2019, published 2022)
“And” between values parts separate entries of the source, which are not always exact repeats. Equal entries are not always repeated.

Key:
tMCAO animal model = details: Molecular Neurobiology 55(9859), January 2018; cited from earlier work
[1] = Population pharmacokinetics model (NONMEM) built on single dose phase 1 data; parameters: species or system human
Protocol: A pharmacokinetics model for administration of a test drug was established for integration with a quantitative pharmacokinetics model for simulating the efficacy and safety of test drugs, as well as simulating the pharmacokinetics of future doses and dosage regimens. The simulation was performed by constructing a pharmacokinetics model based on pharmacokinetics information and demographic information of a total of 30 test subjects who were administered 35 mg, 75 mg, 150 mg, 300 mg, and 600 mg among the test subjects who participated in the single dose clinical test of test drug phase 1. The analysis was performed by a non-linear mixed effect modeling method using NONMEM® (version 7.2; ICON Development Solutions, Ellicott City, Md., USA).
The population pharmacokinetics model was constructed in the order of structural model construction, covariate analysis, and model selection. As a first step, a basic structural model was constructed, and as a step of establishing a model capable of best explaining the change in drug concentration over time, the most pharmacologically and statistically suitable model was selected by performing a search in the order of a 1-compartment model, a 2-compartment model, and a 3-compartment model. As the next step, covariate analysis was performed, and the effects of age, height, body weight, serum creatine, BUN, albumin, AST, and ALT concentrations which are part of the demographic information on pharmacokinetics were quantitatively evaluated. Finally, model selection (internal validation) was performed, a simulation of the established model was performed, and this was evaluated by a visual predictive check (VPC), which is a schematic evaluation method.
The pattern of time-blood concentration changes of the test drug is best explained by a 3-compartment model with 1st order elimination. No significant covariate was found in the covariate analysis utilizing age, height, body weight, serum creatine, BUN, albumin, AST, and ALT concentrations.

healthy male volunteers [2] = experiment: Phase 1 clinical test, single dose escalation: adverse reactions; assay type: in vivo, human
Protocol: (§1) In order to evaluate the safety at the time of a single dose of a test drug, a phased clinical test was conducted as determined by the Data Safety Monitoring Board (DSMB) on 40 subjects (8 subjects per cohort: 6 subjects in test group and 2 subjects in placebo group) in 5 dose groups (35 mg, 75 mg, 150 mg, 300 mg, 600 mg) selected from healthy male volunteers in Korea.
A test drug or placebo was mixed with an infusion solution by intravenous injection therapy, and then administered using an infusion pump for 30 minutes (±5 minutes).
Of the 40 test subjects who were administered the clinical test drug, a total of 6 test subjects developed 7 adverse reactions. There were no reported adverse reactions in the placebo-administered group. Of the 7 adverse reactions, 1 case of “dizziness” was a moderate symptom in the test subjects who were administered 600 mg, and all other adverse reactions corresponded to a mild symptom. The subjects were spontaneously recovered from all the adverse reactions without any sequelae. […] Accordingly, it was determined that the drug tolerability of a single dose of the test drug was good in the test dose range.

[3] = system: patients with acute ischemic stroke; experiment: Phase II clinical test: change ratio of cerebral infarction lesion (MRI, day 4 vs baseline); assay type: in vivo, human
Protocol: (§2) A multi-organ, randomly allocated, double-blind, placebo-controlled, and initial phase II clinical test was conducted on patients with acute ischemic stroke to explore and evaluate the efficacy and safety of the study drug, respectively. This clinical test includes a total of three cohorts, and test subject registration starts from Cohort 1, and when the safety is secured, Cohort 2 is sequentially registered. The registration of Cohort 2 proceeds when the safety is secured after evaluation by the Data Safety Monitoring Board (DSMB) at the time point when all the test subjects of Cohort 1 completed Visit 5 (Day 29). Cohorts 1 and 2 are for confirming the safety and efficacy of the test drug, and based on this, the dose and dosage regimen, and the like of Cohort 3 are determined.
(§3) This clinical test is conducted on patients with modified thrombolysis in cerebral infarction (mTICI) 2b or 3 grade reperfusion in angiography after endovascular recanalization therapy (ERT) among patients with severe ischemic stroke in moderate cases confirmed to have undergone acute cerebral artery occlusion of the anterior circulation system. Intravenous tissue plasminogen activator (IV tPA) intravenous administration is permitted when the stroke is indicated before ERT. Furthermore, when angiography is performed for ERT after intravenous tPA administration, patients who have already undergone mTICI 2b-3 reperfusion by a venous tPA effect alone before ERT also become a subject of the clinical test.
(§4) The following Cohorts 1 to 3 are administered using an infusion pump after mixing a test drug or control drug with an infusion solution.
(§5) Cohort 1. Low-Dose Administration Group • Test drug group: administration of the test drug is started within 30 minutes after reperfusion is confirmed within 6 hours after the onset of the symptom. Immediately after intravenous administration (bolus) of 150 mg of the test drug for 15 minutes, 750 mg of the test drug is intravenously IV infused for 23 hours and 45 minutes (f2 hours). Administration of the test drug should be started within 6.5 hours after the onset of the symptom. • Control drug group: a placebo is administered in the same manner as in the test drug group.
Diffusion weighted imaging (DWI) and gradient-recalled echo (GRE) or susceptibility weighted imaging (SWI), and magnetic resonance imaging (MRI) examination are performed within 90 minutes after reperfusion while administering a medicine for a clinical test, and this is utilized as a baseline result. A change ratio of cerebral infarction lesion at a time point of day 4 compared to the baseline was measured.
For comparison between a test group and the placebo, a two sample t-test is used after log conversion of an evaluation variable (infarct growth ratio). Additionally, a comparison between the test group and the placebo is made using a Wilcoxon rank sum test for a source data log which is not log-converted.
When factors that may affect prognosis should be corrected, analysis of covariance (ANCOVA) is used after log conversion of the evaluation variables (infarct growth ratio).
In patients who were administered a control drug or a test drug, the change ratio of cerebral infarction lesions among patients with similar baselines of cerebral infarction lesions was confirmed (Table 3).

healthy male volunteers [4] = experiment: Phase 1 clinical test, multi dose escalation: adverse reactions; assay type: in vivo, human
Protocol: as §1, with “a repeated” for “a single”, “on 24” for “on 40”, “in 3” for “in 5”, “groups (repeated administration of” for “groups (35 mg, 75 mg,”, “mg, and 450 mg seven times at intervals of 12 hours)” for “mg, 600 mg)”
A test drug or placebo was mixed with an infusion solution by intravenous injection therapy, and then administered using an infusion pump for 60 minutes (±10 minutes), and the same was repeatedly administered seven times at intervals of 12 hours.
Of the 24 test subjects who were administered the clinical test drug, a total of 7 test subjects developed 12 adverse reactions, and among them, 10 cases were confirmed to be adverse drug reactions. One case (one person) of an adverse reaction occurred in the placebo-administered group. […] Accordingly, it was determined that the tolerability of about 150 to 450 mg of the test drug during the repeated administration at intervals of 12 hours was good.

[5] = system: patients with acute ischemic stroke; experiment: Phase II clinical test: Korean version of modified Rankin Scale (K-mRS) at day 90; assay type: in vivo, human
Protocol: as §2, §3, §4, §5
as §5, with “2. High-Dose” for “1. Low-Dose”, “300” for “150”, “30” for “15”, “1500” for “750”, “30” for “45”, “(±2” for “(f2”
The most widely used method for evaluating disability or dependence in daily life for people who have suffered from stroke or other neurological disorders is the Korean version of a modified Rankin Scale (K-mRS). The K-mRS is a global functional outcome scale which evaluates disability due to stroke and is the most universally used scale in stroke clinical tests. The K-mRS distribution shift analysis is a method of comparing the overall prognosis of the test group and the control group, and is the most recommended analysis method in clinical tests for acute stroke treatment methods including neuroprotective agents. The K-mRS is a scale of evaluating the patient's global functionality according to the independence of daily life and the degree to which the patient needs others' help, and is divided into 0 to 6 phases (0: normal, 5: severe disability, and 6: death). At the time points of days 29 and 90, a proportion of the K-mRS score evaluated by the evaluator is presented, and the pre-mRS evaluated at the time of screening is used as basic disease information. […]

[6] = 3-compartment model, structural model
[7] = interindividual variability, predicted value
[8] = Cohort 1, day 4 compared to baseline, individual patients 2, 4, 6, 8, dihydrochloride
[9] = repeated dose 150-450 mg, seven times at 12 h intervals
[10] = Cohort 1 (150 mg bolus + 750 mg infusion), n = 9
[11] = Cohort 2 (300 mg bolus + 1500 mg infusion), n = 6

In the case of CCOc1cc(CN2CCOCC2)cc2[nH]c(=O)c3c(c12)NCCC3 [10-ethoxy-8-(morpholinomethyl)-1,2,3,4-tetrahydrobenzo[h][1,6]naphthyridin-5(6H)-one], the “reducing cerebral infarction volume” value (tMCAO animal model) is listed as “effective in reducing cerebral infarction volume”.
In the case of CCOc1cc(CN2CCOCC2)cc2[nH]c(=O)c3c(c12)NCCC3.Cl.Cl [Test drug, 10-ethoxy-8-(morpholinomethyl)-1,2,3,4-tetrahydrobenzo[h][1,6]naphthyridin-5(6H)-one dihydrochloride], the “1st Clearance of peripheral compartment (Q1), predicted value” [1, 6] is reported as 162 L/h, the “1st Volume of peripheral compartment (V2), predicted value” [1, 6] is reported as 58.5 L and the “2nd Clearance of peripheral compartment (Q2), predicted value” [1, 6] is reported as 2.66 L/h. The “2nd Volume of peripheral compartment (V3), predicted value” [1, 6] was 8.81 L, the “Volume of central compartment (V1), predicted value” [1, 6] was 15.2 L and the “Clearance of central compartment (CL), predicted value” ([1]; 3-compartment model, structural model, 30 subjects, 35-600 mg IV) was 32.0 L/h. For the same compound, the “Interindividual model CL” value [1, 7] was 43.8%, the “Interindividual model Q1” value [1, 7] was 41.7% and the “Interindividual model Q2” value [1, 7] was 28.1%. The “Interindividual model V1” value [1, 7] was 52.4%, the “Interindividual model V2” value [1, 7] was 20.2% and the “Interindividual model V3” value [1, 7] was 64.1%. The “number of adverse reactions” value (healthy male volunteers [2]; single IV dose 35-600 mg over 30 minutes, 40 test subjects) was 7, the “test subjects who developed adverse reactions” value (healthy male volunteers [2]; single IV dose 35-600 mg over 30 minutes, of the 40 test subjects, no adverse reactions in placebo group) was 6 and the “moderate adverse reactions (dizziness), cases” value (healthy male volunteers [2]; single dose 600 mg, all other adverse reactions mild) was 1. The significant adverse reactions (healthy male volunteers [2]; single dose 35-600 mg, entire clinical test) was “No significant adverse reactions occurred”, the “drug tolerability of a single dose” value (healthy male volunteers [2]; test dose range 35-600 mg IV) was “good” and the “Cerebral infarction lesion, Baseline” value ([3]; Cohort 1 (150 mg bolus + 750 mg infusion), individual patients 2, 4, 6, 8, MRI within 90 minutes after reperfusion, dihydrochloride) was 1.59 cc and 10.1 cc and 32 cc and 126.66 cc. The “Cerebral infarction lesion, Time point of day 4” value ([3]; Cohort 1 (150 mg bolus + 750 mg infusion), individual patients 2, 4, 6, 8, dihydrochloride) was 2.67 cc and 10.94 cc and 45.33 cc and 127.61 cc, the “Change ratio of cerebral infarction lesion” value [3, 8] was 1.68 and 1.08 and 1.42 and 1.01 and the “Rate of increase in cerebral infarction lesion” value [3, 8] was 67.9% and 8.3% and 41.7% and 0.8%. For the same compound, the “rate of increase in cerebral infarction lesions compared to control drug group” value ([3]; patients with similar baselines, Table 3) was “significantly low rate of increase in cerebral infarction lesions”, the “test subjects who developed adverse reactions” value (healthy male volunteers [4]; 150, 300, 450 mg IV over 60 minutes, seven times at intervals of 12 hours, of the 24 test subjects, includes one person in placebo group) was 7 and the “tolerability during repeated administration” value (healthy male volunteers [4]; about 150 to 450 mg at intervals of 12 hours) was “good”. For the same compound, the significant adverse reactions (healthy male volunteers [4]; repeated dose 150-450 mg, entire clinical test) was “no significant adverse reactions occurred”, the “adverse reactions confirmed to be adverse drug reactions, cases” value (healthy male volunteers [4]; [9]) was 10 and the “severity of adverse reactions” value (healthy male volunteers [4]; [9]) was “mild”. For the same compound, the “number of adverse reactions” value (healthy male volunteers [4]; repeated dose 150-450 mg, seven times at 12 h intervals, 24 test subjects, one case in placebo group) was 12, the “results of the K-mRS compared to control drug group” value ([5]; 900 mg of the test drug, day 90) was “far superior” and the “K-mRS classification at the time point of day 90: K-mRS 0~2” value [5, 10] was 7(77.78) n(%). For the same compound, the “K-mRS classification at the time point of day 90: K-mRS 3~4” value [5, 10] was 2(22.22) n(%), the “K-mRS classification at the time point of day 90: K-mRS 5~6” value [5, 10] was 0 n(%) and the “K-mRS (continuous variable) at the time point of day 90, 1st Quartile” value ([5]; Cohort 1 (900 mg), N = 9) was 0.00. For the same compound, the “K-mRS (continuous variable) at the time point of day 90, 3rd Quartile” value ([5]; Cohort 1 (900 mg), N = 9) was 2.00, the “K-mRS (continuous variable) at the time point of day 90, Max” value ([5]; Cohort 1 (900 mg), N = 9) was 4.00 and the “K-mRS (continuous variable) at the time point of day 90, Mean(SD)” value ([5]; Cohort 1 (900 mg), N = 9) was 1.44(1.42). The “K-mRS (continuous variable) at the time point of day 90, Median” value ([5]; Cohort 1 (900 mg), N = 9) was 1.00, the “K-mRS (continuous variable) at the time point of day 90, Min” value ([5]; Cohort 1 (900 mg), N = 9) was 0.00 and the “K-mRS classification at the time point of day 90: K-mRS 0” value ([5]; Cohort 1, N = 9) was 3(33.33) n(%). For the same compound, the “K-mRS classification at the time point of day 90: K-mRS 1” value ([5]; Cohort 1, N = 9) was 2(22.22) n(%), the “K-mRS classification at the time point of day 90: K-mRS 2” value ([5]; Cohort 1, N = 9) was 2(22.22) n(%) and the “K-mRS classification at the time point of day 90: K-mRS 3” value ([5]; Cohort 1, N = 9) was 1(11.11) n(%). For the same compound, the “K-mRS classification at the time point of day 90: K-mRS 4” value ([5]; Cohort 1, N = 9) was 1(11.11) n(%), the “K-mRS classification at the time point of day 90: K-mRS 5” value ([5]; Cohort 1, N = 9) was 0 n(%) and the “K-mRS classification at the time point of day 90: K-mRS 6” value ([5]; Cohort 1, N = 9) was 0 n(%). The “K-mRS classification at the time point of day 90: K-mRS 0~2” value [5, 11] was 1(20.00) n(%), the “K-mRS classification at the time point of day 90: K-mRS 3~4” value [5, 11] was 3(60.00) n(%) and the “K-mRS classification at the time point of day 90: K-mRS 5~6” value [5, 11] was 1(20.00) n(%).
